# Measurements as given in US20080206322A1, “Pharmaceutical Multiparticulate Composit Ion Comprising Mycophenolic Acid or Myco Phenolate Sodium and Combination Compositions with Rapamycin” (NOVARTIS AG, priority 2004, published 2008).
# Where two headings read alike, the source gives them in different places.
# Assay: Solubility in acidic medium
# Assay type: physicochemical
smiles,measurement,setting,value
COc1c(C)c2c(c(O)c1C/C=C(\C)CCC(=O)O)C(=O)OC2 [mycophenolic acid],solubility in acidic medium,,low solubility
same,solubility in acidic medium,listed as MPA,poor solubility
